We go through 24 compounds from patent US20250353835A1, “N-TETRAZOLYL ARYL UREA-BASED DERIVATIVES, PREPARATION METHOD THEREFOR, AND USE THEREOF” (Hangzhou Yirui Pharmaceutical Technology Co., Ltd, priority 2022, published 2025).

This test deals with T1, human B1R (Homo sapiens, UniProt P46663).
T1 construct: host or cells: HEK293
T1 sequence (P46663 1-353): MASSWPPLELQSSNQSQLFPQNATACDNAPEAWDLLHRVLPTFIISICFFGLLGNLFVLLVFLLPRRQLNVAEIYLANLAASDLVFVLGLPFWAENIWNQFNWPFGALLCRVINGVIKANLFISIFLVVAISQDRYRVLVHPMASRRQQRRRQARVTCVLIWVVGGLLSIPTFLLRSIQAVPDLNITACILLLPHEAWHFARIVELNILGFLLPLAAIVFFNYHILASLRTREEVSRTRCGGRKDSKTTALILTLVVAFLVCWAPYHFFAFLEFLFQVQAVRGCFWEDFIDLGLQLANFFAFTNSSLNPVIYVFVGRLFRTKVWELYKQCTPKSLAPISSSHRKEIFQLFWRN
Kind of test: FLIPR calcium ion flux assay, inhibitory activity against human B1R. Type of test: cell-based. The settings on record: HEK293 cells stably expressing human B1R; agonist [Lys-des-Arg9]-Bradykinin 4.6 nM (EC80); FLIPR method. As to the method: The inhibitory activity of the compounds against human B1R and B2R channels was determined by calcium ion flux assay using fluorometric imaging plate reader (FLIPR method). See literatures of Lee, Chen et al. for the method. [Lee et al. 2008][Chen et al. 2011]
1. Cell culture: HEK293 recombinant cell lines (WuXi AppTec, Shanghai, China) stably expressing human B1R and B2R were cultured in DMEM (Invitrogen, Cat #11965) medium containing 10% calf serum (Excellbio, Cat #FSP500), 5 μg/ml Geneticin (Invitrogen, Cat #10131) and Penicillin/Streptomycin (Invitrogen, Cat #15140). The incubator conditions were 37° C. and ambient humidity containing 5% CO2.
2. Preparation of the cell assay plate: B1R and B2R cells were seeded in a 384-well assay plate (Greiner, Cat #781090) at a density of 20,000 cells per well (20 μl/well), and cultured overnight at 37° C. in an incubator with 5% CO2. The next day, Fluo-4 Direct™ Loading Buffer (containing 5 mM Probenicid) containing 2× (8 μM) Fluo-4 Direct (Invitrogen, Cat #F10471) was added to each of the wells. The cells were cultured at 37° C. for 50 min, and then culture for at the room temperature 10 min.
3. Preparation of the compound assay plate: The compound was dissolved in 100% DMSO to make a 30 mM stock solution and stored at −20° C. On the day of use, the stock solution of the compound was thawed at the room temperature. Each of the compounds was serially diluted at 1:5 in DMSO culture medium with a starting concentration of 30 μM for 9 concentration points on a 384-well plate. Each of compounds was diluted in duplicate for testing. [Des-Arg10]-HOE140 was used as a positive control compound, and diluted in the same manner with a starting concentration of 3 μM.
4. FLIPR assay: The cell assay plate was placed in a FLIPR instrument ([…]). The compounds in the compound assay plate were added to the corresponding wells on the cell assay plate (10 μL/well) using an automatic program. The calcium ion fluorescence signal was recorded to determine whether the compound may have agonist activity. After 10 minutes, a B1R agonist [Lys-des-Arg9]-Bradykinin2 (10 μL/well) with a final concentration of 4.6 nM (EC80) was added to each of the wells to stimulate the generation of intracellular calcium ion flux signals. The Ca^++-dependent fluorescence signal was continuously monitored at a wavelength of 538 nm to analyze the inhibitory activity of the compound.
5. Data analysis: The data was collected and analyzed by a FLIPR program. The inhibitory (or agonist) activity of the compound at each concentration was evaluated by the fluorescence peak. The IC50 values of the compounds were calculated using EXCEL and PRISM programs.
One may read the IC50 as the concentration needed to halve the response being measured. As to `CCOC(=O)c1ccc(NC(=O)N2CCC(C(C)(C)C)CC2)cc1-c1nn[nH]n1` [Compound 45, ethyl 4-(4-(tert-butyl)piperidine-1-formamido)-2-(2H-tetrazol-5-yl)benzoate], the IC50 was determined as 0.103 µM.

With `CC(C)(C)C1CCN(C(=O)Nc2ccc(C(=O)NC3CCCC3)c(-c3nn[nH]n3)c2)CC1` [Compound 46, 4-(tert-butyl)-N-(4-(cyclopentylaminoformyl)-3-(2H-tetrazol-5-yl)phenyl)piperidine-1-carboxamide], the IC50 was 0.0746 µM.

Regarding `Cc1ccc(NC(=O)c2ccc(NC(=O)N3CCC(C(C)(C)C)CC3)cc2-c2nn[nH]n2)nc1` [Compound 47, 4-(tert-butyl)-N-(4-((5-methylpyridin-2-yl)aminoformyl)-3-(2H-tetrazol-5-yl)phenyl)piperidine-1-carboxamide], the concentration for half-maximal inhibition (IC50) was found to be 0.0939 µM.

For `COc1cncc(-c2ccc(NC(=O)N3CCC(C(C)(C)C)CC3)cc2-c2nn[nH]n2)c1` [Compound 48, 4-(tert-butyl)-N-(4-(5-methoxypyrid-3-yl)-3-(2H-tetrazol-5-yl)phenyl)piperidine-1-carboxamide], the IC50 amounted to 0.372 µM.

As to `CC(C)Oc1ccc(-c2ccc(NC(=O)N3CCC(C(C)(C)C)CC3)cc2-c2nn[nH]n2)cn1` [Compound 49, 4-(tert-butyl)-N-(4-(6-isopropoxypyrid-3-yl)-3-(2H-tetrazol-5-yl)phenyl)piperidine-1-carboxamide], the IC50 was 0.0096 µM.

In the case of `COc1cncc(-c2c(F)cc(NC(=O)N3CCC(C(C)(C)C)CC3)cc2-c2nn[nH]n2)c1` [Compound 50, 4-(tert-butyl)-N-(3-fluoro-4-(5-methoxypyrid-3-yl)-5-(2H-tetrazol-5-yl)phenyl) piperidine-1-carboxamide], the IC50 came out at 0.0548 µM.

Take `Cc1ccc(-c2ccc(NC(=O)N3CCC(C(C)(C)C)CC3)cc2-c2nn[nH]n2)cn1` [Compound 51, 4-(tert-butyl)-N-(4-(6-methylpyrid-3-yl)-3-(2H-tetrazol-5-yl)phenyl)piperidine-1-carboxamide]: the IC50 was 0.0178 µM.

In the case of `Cc1cc(-c2ccc(NC(=O)N3CCC(C(C)(C)C)CC3)cc2-c2nn[nH]n2)ccn1` [Compound 52, 4-(tert-butyl)-N-(4-(2-methylpyridin-4-yl)-3-(2H-tetrazol-5-yl)phenyl)piperidine-1-carboxamide], the IC50 is 0.0349 µM.

Take `CC(C)(C)C1CCN(C(=O)Nc2cc(F)c(C(=O)NC3CCCC3)c(-c3nn[nH]n3)c2)CC1` [Compound 53, 4-(tert-butyl)-N-(4-(cyclopentylaminoformyl)-3-fluoro-5-(2H-tetrazol-5-yl)phenyl)piperidine-1-carboxamide]: the concentration for half-maximal inhibition (IC50) was determined as 0.0481 µM.

With `Cc1ccc(NC(=O)c2c(F)cc(NC(=O)N3CCC(C(C)(C)C)CC3)cc2-c2nn[nH]n2)nc1` [Compound 54, 4-(tert-butyl)-N-(3-fluoro-4-((5-methylpyridin-2-yl)aminoformyl)-5-(2H-tetrazol-5-yl)phenyl)piperidine-1-carboxamide], the IC50 was determined as 0.0679 µM.

Take `Cc1ccc(-c2c(F)cc(NC(=O)N3CCC(C(C)(C)C)CC3)cc2-c2nn[nH]n2)cn1` [Compound 55, 4-(tert-butyl)-N-(3-fluoro-4-(6-methylpyrid-3-yl)-5-(2H-tetrazol-5-yl)phenyl)piperidine-1-carboxamide]: the IC50 stood at 0.0089 µM.

As to `CC(C)Oc1ccc(-c2c(F)cc(NC(=O)N3CCC(C(C)(C)C)CC3)cc2-c2nn[nH]n2)cn1` [Compound 56, 4-(tert-butyl)-N-(3-fluoro-4-(6-isopropoxypyrid-3-yl)-5-(2H-tetrazol-5-yl)phenyl)piperidine-1-carboxamide], the IC50 was 0.0076 µM.

Turning to `CC(C)(C)c1cn(-c2c(F)cc(NC(=O)N3CCC(C(C)(C)C)CC3)cc2-c2nn[nH]n2)cn1` [Compound 57, 4-(tert-butyl)-N-(4-(4-(tert-butyl)-1H-imidazol-1-yl)-3-fluoro-5-(2H-tetrazol-5-yl)phenyl)piperidine-1-carboxamide], the IC50 is 0.0081 µM.

As to `CC(C)(C)c1cn(-c2ccc(NC(=O)N3CCC(C(C)(C)C)CC3)cc2-c2nn[nH]n2)cn1` [Compound 58, 4-(tert-butyl)-N-(4-(4-(tert-butyl)-1H-imidazol-1-yl)-3-(2H-tetrazol-5-yl)phenyl)piperidine-1-carboxamide], the IC50 came out at 0.0086 µM.

Take `COc1ccc(-c2ccc(NC(=O)NC3CCC(C(C)(C)C)CC3)cc2-c2nn[nH]n2)cc1OC` (stereo not drawn) [Compound 59, 1-(4-(tert-butyl)cyclohexyl)-3-(3′,4′-dimethoxy-2-(2H-tetrazol-5-yl)-[1,1′-biphenyl]-4-yl)urea]: the IC50 stood at 0.0354 µM.

Consider `COc1ccc(-c2ccc(NC(=O)Nc3ccc(C(F)(F)F)cc3)cc2-c2nn[nH]n2)cc1OC` [Compound 60, 1-(3′,4′-dimethoxy-2-(2H-tetrazol-5-yl)-[1,1′-biphenyl]-4-yl)-3-(4-(trifluoromethyl)phenyl)urea], for which the IC50 amounted to 0.247 µM.

`COc1ccc(-c2ccc(NC(=O)N[C@H]3CC[C@@H](C)CC3)cc2-c2nn[nH]n2)cc1OC` [Compound 61, 1-(3′,4′-dimethoxy-2-(2H-tetrazol-5-yl)-[1,1′-biphenyl]-4-yl)-3-(4-methylcyclohexyl)urea]: the IC50 came out at 0.0922 µM.

On to `COc1ccc(-c2ccc(NC(=O)N[C@H]3CC[C@H](C)CC3)cc2-c2nn[nH]n2)cc1OC` [Compound 62, 1-(3′,4′-dimethoxy-2-(2H-tetrazol-5-yl)-[1,1′-biphenyl]-4-yl)-3-((trans)-4-methylcyclohexyl)urea], for which the IC50 was found to be 0.0602 µM.

Take `COc1ccc(Oc2ccc(NC(=O)N[C@H]3CC[C@@H](C)CC3)cc2-c2nn[nH]n2)cc1OC` [Compound 63, 1-(4-(3,4-dimethoxyphenoxy)-3-(2H-tetrazol-5-yl)phenyl)-3-((cis)-4-methylcyclohexyl)urea]: the IC50 is 7.71 µM.

Turning to `COc1ccc(Oc2ccc(NC(=O)N[C@H]3CC[C@H](C)CC3)cc2-c2nn[nH]n2)cc1OC` [Compound 64, 1-(4-(3,4-dimethoxyphenoxy)-3-(2H-tetrazol-5-yl)phenyl)-3-((trans)-4-methylcyclohexyl)urea], the IC50 is 9.9 µM.

Regarding `C[C@H]1CC[C@H](NC(=O)Nc2ccc(C3=CCOCC3)c(-c3nn[nH]n3)c2)CC1` [Compound 66, 1-(4-(3,6-dihydro-2H-pyran-4-yl)-3-(2H-tetrazol-5-yl)phenyl)-3-((trans)-4-methylcyclohexyl)urea], the IC50 turned out to be 1.65 µM.

As for `C[C@H]1CC[C@@H](NC(=O)Nc2ccc(C3CCOCC3)c(-c3nn[nH]n3)c2)CC1` [Compound 67, 1-((cis)-4-methylcyclohexyl)-3-(4-(tetrahydro-2H-pyran-4-yl)-3-(2H-tetrazol-5-yl)phenyl)urea], the IC50 was determined as 13.3 µM.

As to `C[C@H]1CC[C@H](NC(=O)Nc2ccc(C3CCOCC3)c(-c3nn[nH]n3)c2)CC1` [Compound 68, 1-((trans)-4-methylcyclohexyl)-3-(4-(tetrahydro-2H-pyran-4-yl)-3-(2H-tetrazol-5-yl)phenyl)urea], the IC50 amounted to 7.49 µM.

Take `C[C@H]1CC[C@H](NC(=O)Nc2ccc(-c3ccc4c(c3)OCO4)c(-c3nn[nH]n3)c2)CC1` [Compound 69, 1-(4-(benzo[d][1,3]dioxolan-5-yl)-3-(2H-tetrazol-5-yl)phenyl)-3-((trans)-4-methylcyclohexyl)urea]: the IC50 was 4.91 µM.
